Test [1] concerns biofilms of Pseudomonas aeruginosa PAO1, Enterococcus faecalis V583 and Staphylococcus aureus Mu50. In words: Biofilm dry weight after incubation of formed three-species biofilms with treatments. Type of test: cell-based. Particulars: biomass dry weight of treated mixed biofilm, 80° C. 48 hours drying; incubation 37° C., 140 rpm; triplicate; Control 126. As for the experimental part: (§1) Pseudomonas aeruginosa PAO1 (ATCC number: BAA-47), Enterococcus faecalis V583 (ATCC number: 700802), and Staphylococcus aureus Mu50 (ATCC number: 700699) grown on agar plates made from tryptic soy broth (TSB, Sigma Chemical Co., St. Louis, Mo., USA) were inoculated into TSB broth and grown at 37° C. in a shaker for 16 hr. An aliquot was diluted in TSB broth to a series of dilutions for each individual bacteria type. The diluted bacteria were plated out to count colony forming units (CFU). They were further diluted to 1×10^6 cfu ml^−1 and mixed equally as inoculums. Bolton broth (Oxoid Ltd, Basingstock, Hampshire, England) with 50% Bovine plasma (Biomeda, Foster City, Calif., USA) was used for biofilm formation media. […]
(§2) In a series of runs the formed biofilms were washed and then incubated with the three CAZS solutions, then associated with a 30 μg/ml solution of Gentamicin sulfate (MP Biomedicals, Illkirch, France) in distilled water, or with a 20 ppm solution of 2,4,4′-trichloro-2-hydroxydiphenyl ether (Triclosan, KIC Chemicals, New Paltz, N.Y., USA) dissolved in propylene glycol (ScienceLab, Houston, Tex., USA). […] The biomass dry weight was measured as the total weight minus the empty tube weight measured before use. […] A separate set of tubes in triplicate was used for DNA extraction and quantitative PCR analysis to determine relative bacterial levels in the treated biofilms.

In test [2] the test system is P. aeruginosa. In words: Quantitative PCR analysis of relative bacterial levels in treated biofilms. Type of test: cell-based, Pseudomonas aeruginosa PAO1. Particulars: DNA extraction and quantitative PCR of treated mixed biofilm; Control 46.8. The protocol: as §1, §2
Test [3] has as its system E. faecalis. The description is as above. The note with it: DNA extraction and quantitative PCR of treated mixed biofilm; Control 29.7. Format: cell-based, Enterococcus faecalis V583. As for the experimental part: as §1, §2
Test [4] relates to S. aureus. The test is described as above. Type of test: cell-based, Staphylococcus aureus Mu50. Particulars: DNA extraction and quantitative PCR of treated mixed biofilm; Control 23.5.
Protocol: Pseudomonas aeruginosa PAO1 (ATCC number: BAA-47), Enterococcus faecalis V583 (ATCC number: 700802), and Staphylococcus aureus Mu50 (ATCC number: 700699) grown on agar plates made from tryptic soy broth (TSB, Sigma Chemical Co., St. Louis, Mo., USA) were inoculated into TSB broth and grown at 37° C. in a shaker for 16 hr. An aliquot was diluted in TSB broth to a series of dilutions for each individual bacteria type. The diluted bacteria were plated out to count colony forming units (CFU). They were further diluted to 1×10^6 cfu ml^−1 and mixed equally as inoculums. Bolton broth (Oxoid Ltd, Basingstock, Hampshire, England) with 50% Bovine plasma (Biomeda, Foster City, Calif., USA) was used for biofilm formation media. Glass 16×150 mm test tubes with caps were autoclaved, and 7 ml biofilm formation media aseptically dispensed in each tube. The normalized cultures of the three bacteria were mixed and 10 μl portions of the combined and normalized 1×10^6 CFU ml^−1 culture were inoculated into glass tubes by ejecting the pipette tips into the tubes. […]
The resulting mixtures were stirred at 37° C. and 140 rpm for 1, 2, 3 and 4 hours. […] The biomass dry weight was measured as the total weight minus the empty tube weight measured before use. […] A separate set of tubes in triplicate was used for DNA extraction and quantitative PCR analysis to determine relative bacterial levels in the treated biofilms.

As for `Oc1cc(Cl)ccc1Oc1ccc(Cl)cc1Cl` [20 ppm Triclosan, 2,4,4′-trichloro-2-hydroxydiphenyl ether], the “Dry Weight” value in test [1] was 88 mg. In test [2], the “Relative Bacterial Levels P. aeruginosa” value is listed as 60.0. Also, in test [3], the “Relative Bacterial Levels E. faecalis” value is 39.9. Besides, in test [4], the “Relative Bacterial Levels S. aureus” value came to 0.13.

Take “Gentamicin sulfate [20 mg/ml Gentamicin]”: the “Dry Weight” value in test [1] stood at 78 mg. For the same compound, the “Relative Bacterial Levels P. aeruginosa” value in test [2] stood at 0.2. Moreover, the “Relative Bacterial Levels E. faecalis” value in test [3] came out at 50.3. Further, the “Relative Bacterial Levels S. aureus” value in test [4] was 49.6.

Source of the values: patent US9700344B2, “Method for treating chronic wounds with an extracellular polymeric substance solvating system” (priority 2008, dated 2017).
